In brackets after ≈: the same amount, converted by molar mass. Entries after “also recorded” stand apart in the source; their conditions may differ.
Columns and labels:
[1] = Estimation of compound solubility in water (saturated solution, UV-vis); format: physicochemical; conditions: for solubility at 48 h: aqueous buffer, thermodynamic from solid, 20 mM phosphate (pH 6.5) and 50 mM KCl buffer at 23 °C
Description: To estimate the solubility, we prepared saturated solutions of the compounds by adding 5 mg of each selected compound to 700 μL of 20 mM phosphate buffer (pH 6.5) containing 50 mM KCl. After 48 h of gentle agitation at room temperature (RT), the solutions were spun down, and the supernatant was filtered through 0.2 μm of SPARTAN 13/0.2 RC filter units (Merck KgaA, Darmstadt, Germany) and diluted 100–200× in the same phosphate buffer. The diluted solutions were transferred into the quartz cuvette, recording UV–vis absorption spectra in the range from 200 to 600 nm on a UV-1800 UV/visible scanning spectrophotometer (Shimadzu, Kyoto, Japan) at room temperature. The compound concentrations were estimated by the single point calibration using the absorption at wavelengths higher than 240 nm outside of DMSO absorption of 2000× diluted 50 mM DMSO-dissolved stock solution in phosphate buffer.

[2] = test system: FOXO3 binding to the promoter region of DEPP1 in SH-EP/FOXO3 cells; assay: DEPP1-luciferase reporter assay of FOXO3 transcriptional activity; format: cell-based; conditions: for potency in blocking FOXO3 binding to the promoter region of DEPP1, compared with 5ca: initial screen, 50 μM compound; for inhibitory potency on target gene activation by FOXO3 (in words): summary of the reporter data, Figures 2, S2, S3; for potency in blocking FOXO3 binding to the promoter region of DEPP1: 25 and 12.5 μM compound; for efficiency of blocking FOXO3 binding to the promoter region of DEPP1: lower concentrations, down to 0.78 μM
Description: (§1) The ability of these compounds to inhibit FOXO3 transcriptional activity was further examined by assessing their effect on FOXO3 binding to the promoter region of decidual protein induced by progesterone 1 (DEPP1) after transfecting a DEPP1-luciferase reporter plasmid into SH-EP neuroblastoma cells stably expressing a 4-hydroxy-tamoxifen (4OHT)-regulated FOXO3(A3)ERtm transgene. […] In parallel, the toxicity of the compounds was tested by assessing their effect on endogenous DEPP1 and actin promoters in SH-EP cells.
Transcriptional activation of the DEPP1 promoter by conditional FOXO3 was assessed after transfection of a DEPP1-luciferase reporter plasmid pGS c10orf10 Prom wt (DEPP1-LUC)[20] into SH-EP/FOXO3 cells using the JetPrime reagent (Polyplus, Berkeley). After 24 h of transfection, mTFP fluorescent protein expression from a cotransfected expression vector was assessed by live cell fluorescence microscopy to verify equal transfection rates before seeding cells into 24-well plates. After 48 h of transfection, the cells were pretreated with indicated concentrations of each compound (30 min) before adding 100 nM 4-hydroxy-tamoxifen (4OHT) for 3 h to activate ectopic FOXO3. Firefly-luciferase was analyzed using the Luciferase Assay System (Promega, Madison). Luminescence intensity was measured in a Hidex Chameleon—Multilabel Microplate Reader (Hidex, Turku, Finland).

FOXO3 = test system: FOXO3; set-up: method as in PMID 31591479, PMID 31789593; conditions: inhibit the transcriptional program of FOXO3; cited from earlier work
[3] = test system: endogenous DEPP1 and actin promoters in SH-EP cells; assay: Toxicity control: endogenous DEPP1 and actin promoter luciferase reporters; format: cell-based
Description: as §1
For this purpose, 2 × 10^6 SH-EP cells were transfected with either a DEPP1-LUC-reporter plasmid or an actin-LUC reporter plasmid using JetPrime reagent (Polyplus, Berkeley). Actin-LUC was constructed by inserting a 1.3 kb fragment of the chicken β actin promoter into pGL3-luc reporter vector (Promega, Madison). After 24 h of transfection, the cells were seeded into 24-well plates. After another 24 h, the cells were pretreated with indicated concentrations of compound for 3.5 h. Firefly-luciferase was analyzed using the Luciferase Assay System (Promega, Madison). Luminescence intensity was measured in a Hidex Chameleon—Multilabel Microplate Reader (Hidex, Turku, Finland).

[4] = test system: FOXO3-induced apoptotic cell death in SH-EP/FOXO3 neuroblastoma cells; assay: Resazurin early cell death evaluation assay; format: cell-based; conditions: for IC50: Neuroblastoma cell, 100 nM 4OHT, 24 h, approximate, toxicity prevented accurate determination, read-out: IC50, inhibition of FOXO3-induced cell death; for IC50 / concentration above which the compound is toxic (spontaneous cell death): SH-EP/FOXO3 cells; for fold lower IC50 than that of 5ca: resazurin assay, ratio to 5ca IC50 of ∼8 μM
Description: Moreover, we also attempted to determine the IC50 values of 5ci, 5cj, and 5db using a resazurin early cell death evaluation assay in cells expressing a conditional FOXO3 allele that triggers apoptotic cell death upon activation.
Neuroblastoma cells SH-EP/FOXO3 were seeded into 96-well plates and treated with concentrations 0.05, 0.1, 0.2, 0.39, 0.78, 1.56, 3.125, 6.25, 12.5, 18.75, and 25 μM of 5ca and its derivatives 30 min before activating ectopic FOXO3 by 100 nM 4OHT. For 5ca derivatives, concentrations above 3.125 μM had to be excluded from the analysis due to spontaneous cell death induction. Resazurin salt (Sigma-Aldrich s.r.o., St. Louis, Missouri) was diluted to a final concentration of 0.01% (wt/vol), and 20 μL of this dilution was added to 200 μL of the cell culture in each well 24 h after FOXO3 activation. Resazurin is reduced in viable cells to red-fluorescent resoflurin, which was quantified in a Hidex Chameleon—Multilabel Microplate Reader (Hidex, Turku, Finland) at filter settings 544 nm Ex/616 nm Em.

[5] = biological target: T1, recombinant DNA-binding domain of human FOXO3 (residues 156–269, FOXO3-DBD) (Homo sapiens, UniProt O43524); assay: Fluorescence polarization (FP) assay of FOXO3-DBD binding to FAM-labeled IRE dsDNA; conditions: compound 1 μM; 125 nM FOXO3-DBD, 25 nM FAM-dsDNA
T1 construct: DNA encoding human FOXO3-DBD (residues 156–269); GST (N, cleaved yes); made in house; host or cells: E. coli BL21(DE3)
T1 sequence (O43524 156-269): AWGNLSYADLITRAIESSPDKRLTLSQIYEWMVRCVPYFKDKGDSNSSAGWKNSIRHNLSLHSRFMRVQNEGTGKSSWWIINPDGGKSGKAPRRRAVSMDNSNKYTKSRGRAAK
Description: The FOXO3 inhibition potency of the phenylpyrimidinylguanidine derivatives was first examined in a fluorescence polarization (FP) assay using the recombinant DNA-binding domain of human FOXO3 (residues 156–269, denoted as FOXO3-DBD) and FAM-labeled dsDNA containing the insulin-response element (IRE) consensus motif (Figure S1).
The final concentration of DMSO in all mixtures was adjusted to 5% (v/v). Positive (only assay buffer and FAM-labeled oligonucleotide) and negative (FOXO3-DBD and FAM-labeled oligonucleotide) controls were analyzed on each plate. Milli polarization values (mP) were measured at an excitation wavelength of 485 nm and an emission wavelength of 530 nm.

solubility in water (in words) [1] | solubility at 48 h [1] [µM] | Compound | potency in blocking FOXO3 binding to the promoter region of DEPP1, compared with 5ca [2] | inhibitory potency on target gene activation by FOXO3 (in words) [2] | potency in blocking FOXO3 binding to the promoter region of DEPP1 [2] | further results
insufficient solubility in water | 4000 (≈ 965 µg/mL) | Cc1cc(C)nc(NC(=N)Nc2ccccc2)n1 [5cb, 1-(4,6-Dimethylpyrimidin-2-yl)-3-phenylguanidine] | less potent FOXO3 inhibitors than 5ca | lower ability to inhibit FOXO3 | – | –
limited the solubility | 200 (≈ 62.3 µg/mL) | Cc1cc(C)nc(NC(=N)NCc2ccc(C(C)(C)C)cc2)n1 [5cg, 1-(4-(tert-Butyl)benzyl)-3-(4,6-dimethylpyrimidin-2-yl)guanidine] | more potent than 5ca | increased FOXO3 inhibition | the most potent compounds | –
improved solubility | 7000 (≈ 1890 µg/mL) | Cc1ccc(CNC(=N)Nc2nc(C)cc(C)n2)cc1 [5cd, 1-(4,6-Dimethylpyrimidin-2-yl)-3-(4-methylbenzyl)guanidine] | – | did not increase the inhibitory potency | – | –
– | – | CC1(C)[C@@H](OC(=O)CCC(=O)O)CC[C@]2(C)[C@H]3C(=O)C=C4[C@@H]5C[C@@](C)(C(=O)O)CC[C@]5(C)CC[C@@]4(C)[C@]3(C)CC[C@@H]12 [carbenoxolone] | – | – | – | concentration range of FOXO3 inhibition in cancer cells (FOXO3): low micromolar range
– | – | CCOc1cc(CC(=O)N[C@@H](CC(C)C)c2ccccc2N2CCCCC2)ccc1C(=O)O [repaglinide] | – | – | – | concentration range of FOXO3 inhibition in cancer cells (FOXO3): low micromolar range
– | 200 (≈ 78.1 µg/mL) | CCCOc1ccc(NC(=N)Nc2nc(C)cc(NCc3ccccc3)n2)cc1 [5da, 1-(4-(Benzylamino)-6-methylpyrimidin-2-yl)-3-(4-propoxyphenyl)guanidine] | more potent than 5ca | – | the most potent compounds | –
– | 100 (≈ 30.1 µg/mL) | CCCOc1ccc(NC(=N)Nc2nc(C)cc(O)n2)cc1 [5aa, 1-(4-Hydroxy-6-methylpyrimidin-2-yl)-3-(4-propoxyphenyl)guanidine] | – | – | – | –
– | 20000 (≈ 6400 µg/mL) | CCCOc1ccc(NC(=N)Nc2nc(C)cc(Cl)n2)cc1 [5ba, 1-(4-Chloro-6-methylpyrimidin-2-yl)-3-(4-propoxyphenyl)guanidine] | more potent than 5ca | – | – | –
– | 4000 (≈ 1080 µg/mL) | Cc1cccc(CNC(=N)Nc2nc(C)cc(C)n2)c1 [5ce, 1-(4,6-Dimethylpyrimidin-2-yl)-3-(3-methylbenzyl)guanidine] | less potent FOXO3 inhibitors than 5ca | did not increase the inhibitory potency | – | –
low solubility | 1700 (≈ 606 µg/mL) | CCCCNc1cc(C)nc(NC(=N)Nc2ccc(OCCC)cc2)n1 [5dc, 1-(4-(Butylamino)-6-methylpyrimidin-2-yl)-3-(4-propoxyphenyl)guanidine] | more potent than 5ca | slightly lower inhibitory efficacy than 5cj, 5ci, and 5db | the most potent compounds | –
– | 2000 (≈ 539 µg/mL) | Cc1cc(C)nc(NC(=N)NCc2ccccc2C)n1 [5cf, 1-(4,6-Dimethylpyrimidin-2-yl)-3-(2-methylbenzyl)guanidine] | – | did not increase the inhibitory potency | – | –
sufficient solubility in water | 6000 (≈ 1640 µg/mL) | Cc1cc(C)nc(NC(=N)NCc2ccc(F)cc2)n1 [5ch, 1-(4,6-Dimethylpyrimidin-2-yl)-3-(4-fluorobenzyl)guanidine] | less potent FOXO3 inhibitors than 5ca | did not increase the inhibitory potency | – | –

Compound | solubility in water (in words) [1] | solubility at 48 h [1] [µM] | potency in blocking FOXO3 binding to the promoter region of DEPP1, compared with 5ca [2] | inhibitory potency on target gene activation by FOXO3 (in words) [2] | potency in blocking FOXO3 binding to the promoter region of DEPP1 [2] | further results
Cc1cc(C)nc(NC(=N)NCc2ccccc2)n1 [5cc, 1-Benzyl-3-(4,6-dimethylpyrimidin-2-yl)guanidine] | significantly increased solubility in water | 10000 (≈ 2550 µg/mL) | less potent FOXO3 inhibitors than 5ca | lower ability to inhibit FOXO3 | – | –
CCCOc1ccc(NC(=N)Nc2nc(C)cc(NCCc3ccccc3)n2)cc1 [5db, 1-(4-Methyl-6-(phenethylamino)pyrimidin-2-yl)-3-(4-propoxyphenyl)guanidine] | low solubility; also recorded: very low solubility | 300 (≈ 121 µg/mL) | more potent than 5ca | strongest inhibitor | the most potent compounds | efficiency of blocking FOXO3 binding to the promoter region of DEPP1 [2]: more efficiently than 5cg, 5da, and 5dc; toxicity compared with other derivatives ([3]; higher concentrations, Figure 2): more toxic than 5ci and 5cj at higher concentrations; IC50 [4]: ~500 nM; concentration above which the compound is toxic (spontaneous cell death) [4]: higher than 4 μM; fold lower IC50 than that of 5ca [4]: 8–16 ×
Cc1cc(C)nc(NC(=N)NCc2cccc3ccccc23)n1 [5ci, 1-(4,6-Dimethylpyrimidin-2-yl)-3-(naphthalen-1-ylmethyl)guanidine] | low solubility | 700 (≈ 214 µg/mL) | more potent than 5ca | increased FOXO3 inhibition | the most potent compounds | efficiency of blocking FOXO3 binding to the promoter region of DEPP1 [2]: more efficiently than 5cg, 5da, and 5dc; inhibition of FOXO3-mediated transcription ([2]; lowest concentration tested, 0.78 μM): significantly inhibited; effect on endogenous DEPP1 and actin promoters (toxicity markers) ([3]; 0.78 μM, SH-EP cells): without any effect; IC50 [4]: ~500 nM; concentration above which the compound is toxic (spontaneous cell death) [4]: higher than 4 μM; fold lower IC50 than that of 5ca [4]: 8–16 ×
CCCOc1ccc(NC(=N)Nc2nc(C)cc(C)n2)cc1 [5ca, 1-(4,6-Dimethylpyrimidin-2-yl)-3-(4-propoxyphenyl)guanidine] | – | 2000 (≈ 599 µg/mL) | – | – | – | IC50 [4]: ~8000 nM; concentration above which the compound is toxic (spontaneous cell death) [4]: higher than 25 μM; reduction of FOXO3-DBD binding to FAM-IRE dsDNA [5]: approximately 20%; concentration range of FOXO3 inhibition in cancer cells (FOXO3): low micromolar range
